Measurements published in patent US20090111105A1 (priority 2007, published 2009).

What was measured:
androgen receptor (AR) = target: T1, androgen receptor (AR) (Homo sapiens, UniProt P10275); settings: SH-SY5Y cells, 1f-pGI3 + pSG5AR, FIG. 8 and FIG. 10
T1 sequence (P10275 1-920): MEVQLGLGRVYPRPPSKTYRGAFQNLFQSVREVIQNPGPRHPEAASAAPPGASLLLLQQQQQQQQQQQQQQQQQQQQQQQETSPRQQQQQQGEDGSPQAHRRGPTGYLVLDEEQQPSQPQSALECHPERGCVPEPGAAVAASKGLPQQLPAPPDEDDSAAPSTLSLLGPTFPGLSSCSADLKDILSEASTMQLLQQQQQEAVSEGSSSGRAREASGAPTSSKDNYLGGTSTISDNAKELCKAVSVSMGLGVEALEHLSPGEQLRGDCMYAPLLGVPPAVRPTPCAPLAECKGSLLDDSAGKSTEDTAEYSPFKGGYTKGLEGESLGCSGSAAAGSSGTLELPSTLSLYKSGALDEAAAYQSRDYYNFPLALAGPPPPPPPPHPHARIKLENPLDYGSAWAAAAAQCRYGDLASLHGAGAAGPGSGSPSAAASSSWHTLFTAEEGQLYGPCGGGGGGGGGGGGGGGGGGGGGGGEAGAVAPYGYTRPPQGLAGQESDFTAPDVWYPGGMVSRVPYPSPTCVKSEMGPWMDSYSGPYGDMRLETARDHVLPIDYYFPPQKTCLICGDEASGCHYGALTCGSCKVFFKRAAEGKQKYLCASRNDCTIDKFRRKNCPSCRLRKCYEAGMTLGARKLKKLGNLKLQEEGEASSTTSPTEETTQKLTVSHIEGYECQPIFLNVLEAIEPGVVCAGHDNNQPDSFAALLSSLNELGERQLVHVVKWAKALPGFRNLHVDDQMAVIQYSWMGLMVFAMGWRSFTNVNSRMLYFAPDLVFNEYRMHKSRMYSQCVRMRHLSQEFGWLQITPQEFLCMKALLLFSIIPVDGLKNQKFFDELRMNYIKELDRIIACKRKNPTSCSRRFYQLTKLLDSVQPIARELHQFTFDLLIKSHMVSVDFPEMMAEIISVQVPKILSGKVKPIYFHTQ

male sexual behaviour = settings: in comparison with testosterone; Arteaga-Silva et al. 2005; cited from earlier work
prostate = settings: Arteaga-Silva et al. 2005; cited from earlier work

| SMILES | induction of reporter gene expression on the 1f-promoter (androgen receptor (AR)) | action on male sexual behaviour (male sexual behaviour) | androgenic action on the prostate (prostate) |
| --- | --- | --- | --- |
| CCC(=O)O[C@H]1CC[C@H]2[C@@H]3CCC4=CC(=O)CC[C@]4(C)[C@H]3CC[C@]12C [testosterone propionate] | very potent stimulation | – | – |
| C[C@]12CCC(=O)C[C@@H]1CC[C@@H]1[C@@H]2CC[C@]2(C)[C@@H](O)CC[C@@H]12 [DHT, dihydrotestosterone] | – | considerably less action | very strong androgen |
